Source: patent US20100173959A1, “METHOD OF PROTECTING A PLANT PROPAGATION MATERIAL, A PLANT, AND/OR PLANT ORGANS” (SYNGENTA CROP PROTECTION, INC., priority 2007, published 2010)

How the values were obtained:
[1] = tested on: cabbage aphid (Myzus persicae); assay: Example 2: Chinese cabbage seed treatment, reduction of cabbage aphid; type: in vivo; settings: infested 14 days after sowing, counted 7 days after infestation
Protocol: Chinese cabbage seeds are treated with P1.1, P1.5, P1.6, P1.8, P1.32 or P1.38 at rates of 0.3 and 0.6 mg a.i./seed. The seeds are sown into 9-cm pots filled with 280 mL of soil. After placing the seeds on the soil surface they are covered with 50 mL of soil. Before and during the bioassays, the plants are grown in greenhouse chambers at 25° C. during daytime, 23° C. during night, 50-60% rH, a 14-hour photoperiod and artificial lighting when natural light fell below 20 kLux. After sowing, the pots are transferred to the greenhouse chambers, set up in a random fashion and are irrigated as necessary from above. After 14 days, the plants are infested with cabbage aphid (Myzus persicae) by placing one infested pea seedling containing approximately 150 aphids of a population of mixed developmental stages onto each plant. Seven days after infestation, the number of aphids is counted per plant. Each treatment group is replicated 10 times. Each replicate contains 1 plant.

[2] = tested on: African bean aphid (Aphis craccivora); assay: Example 1: sugarbeet seed treatment, reduction of African bean aphid; type: in vivo; settings: infested 14 days after sowing, counted 7 days after infestation
Protocol: Sugarbeet seeds are treated with P1.1, P1.5, P1.6, P1.8, P1.32 or P1.38 at rates of 0.1, 0.3 and 0.6 mg a.i./seed. The seeds are sown into 9-cm pots filled with 280 mL of soil. After placing the seeds on the soil surface they are covered with 50 mL of soil. Before and during the bioassays, the plants are grown in greenhouse chambers at 25° C. during daytime, 23° C. during night, 50-60% rH, a 14-hour photoperiod and artificial lighting when natural light fell below 20 kLux. After sowing, the pots are transferred to the greenhouse chambers, set up in a random fashion and are irrigated as necessary from above. After 14 days, the plants are infested with African bean aphid (Aphis craccivora) by placing one infested pea seedling containing approximately 150 aphids of a population of mixed developmental stages onto each plant. Seven days after infestation, the number of aphids is counted per plant. Each treatment group is replicated 10 times. Each replicate contains 1 plant.

[3] = tested on: Myzus persicae; assay: B1: Myzus persicae (Green Peach Aphid), mixed population, sachet test; type: in vivo; settings: 144 h, 12.5 ppm in 30% sucrose solution, 6 days after infestation, read-out: control of Myzus persicae (mortality, feeding activity)
Protocol: B1: Myzus persicae (Green Peach Aphid) (Mixed Population, Sachet Test)
Each well of a 24-well microtiter plate is filled with 0.6 ml 30% sucrose solution, containing 12.5 ppm of the test compounds. For producing the sachets, the wells are covered with stretched parafilm and infested with a mixed population of Myzus persicae. 6 days after the infestation, samples are checked for mortality (feeding activity).

[4] = tested on: Myzus persicae; assay: B2: Myzus persicae (Green Peach Aphid), mixed population, systemic/feeding activity, curative; type: in vivo; settings: 144 h, roots of infested pea seedlings in test solution of 6 ppm, 6 days after introduction, read-out: control of Myzus persicae (mortality)
Description: B2: Myzus persicae (Green Peach Aphid) (Mixed Population, Systemic/Feeding Activity, Curative)
Roots of pea seedlings, infested with an aphid population of mixed ages, are placed directly in the test solutions of 6 ppm. 6 days after introduction, samples are checked for mortality and special effects on the plant.

Row | SMILES | Efficacy, % (reduction of aphids compared to untreated control plants) ([1]; 0.3 mg/seed) [%] | Efficacy, % (reduction of aphids compared to untreated control plants) ([1]; 0.6 mg/seed) [%] | Efficacy, % (reduction of aphids compared to untreated control plants) ([2]; 0.1 mg/seed) [%] | Efficacy, % (reduction of aphids compared to untreated control plants) ([2]; 0.3 mg/seed) [%] | Efficacy, % (reduction of aphids compared to untreated control plants) ([2]; 0.6 mg/seed) [%] | mortality at 12.5 ppm [3] [%] | mortality at 6 ppm [4] [%] | melting point [°C]
1 | COc1cccc2c1C(N)=NS2(=O)=O [P1.1, 3-Amino-4-methoxybenzo[d]isothiazole-1,1-dioxide] | 10 | 45 | 41 | 69 | 92 | 100 | 100 | 
2 | NC1=NS(=O)(=O)c2cccc(Cl)c21 [P1.5, 3-Amino-4-chlorobenzo[d]isothiazole-1,1-dioxide] | 11 | 64 | 87 |  |  | 100 | 100 | 
3 | COc1cccc2c1C(NC(C)=O)=NS2(=O)=O [P1.8, 3-Acetylamino-4-methoxybenzo[d]isothiazole-1,1-dioxide] | 0 | 28 | 8 | 72 | 95 |  |  | 242 to 245
